Like-named read-outs stand apart in the source and are kept apart here.
How the values were obtained:
D3R [1] = target: T1, D3R (Rattus norvegicus, UniProt P19020); experiment: Competition binding study of [125I]HY-3-24 in rat ventral striatal membranes; settings: for fold lower affinity/potency for displacing [125I]HY-3-24 relative to eticlopride: rat ventral striatum
T1 construct: The ventral striatum was isolated by dissection on ice; tissue Innovative research, Inc; host or cells: Sprague–Dawley rat brain: ventral striatal homogenates; frozen brain sections
Protocol: (§1) Frozen rat brains (Sprague–Dawley rat, Male, 6–8 weeks old) were obtained from Innovative research, Inc. (Novi, Michigan, United States). The ventral striatum was isolated by dissection on ice. Cold homogenization buffer (HB, 20 mM Tris–HCl, 5 mM MgCl2, 1 mM EDTA, pH7.5) was added and the tissue homogenized by mortar and pestle on ice. Homogenized tissue was centrifuged at 10,000 × g, 4°C for 30 min. Supernatant was removed and pellet was mixed with cold HB buffer by vortex. This process was repeated two times to get rat ventral striatal homogenates; and protein amount was determined using a BCA protein assay kit. Homogenized tissue homogenates were stored at −80°C until use.
10 μM of (+)-butaclamol was used for determination of non-specific binding. The final reaction volume was 200 μL and the assay mixture was incubated at RT for 60 min. […] The filter was washed with cold buffer (3 times) and counted by gamma counter. The value of Ki was calculated using nonlinear regression analysis by PRISM 9 and the results was presented mean ± SD by three individual experiments.

D2 receptors = target: D2 receptors; set-up: method as in Kulagowski et al., 1996; settings: ref Kulagowski et al., 1996; read-out: Ki for displacing [3H]spiperone to D2 receptors; cited from earlier work
D3R [2] = target: T1, D3R; experiment: D3R and D2R blocking studies of [125I]HY-3-24 in rat striatal homogenates; format: binding; settings: blocker at 2.4 nM, rat striatal membranes, RT 2 h
Protocol: For the D3R and D2R blocking studies, [^125I]HY-3-24 (0.3 nM) was mixed with 100 μg of protein and incubated at RT for 2 h in the presence or absence of 30 nM cold HY-3-24, 100 nM SB-277-011A, 10 nM SB-277-011A, or 2.4 nM L-741,626. [^125I]HY-3-24 bound protein was collected by fast filtration methods (GF/C filter soaked in 1% PEI, Brandel Inc., Maryland, United States) and counted using gamma counter (PerkinElmer, Massachusetts, United States).

hD3R [3] = target: hD3R; set-up: method as in Yang et al., 2000; settings: ref Yang et al., 2000; cited from earlier work
hD2R [4] = target: hD2R; set-up: method as in Yang et al., 2000; settings: ref Yang et al., 2000; cited from earlier work
[5] = Distribution coefficient (LogD7.4), shake-flask; format: physicochemical; settings: n-octanol / 0.01 M phosphate buffer pH 7.4, shake-flask, quintuplicate
Protocol: In a separatory funnel, 10 mL of n-octanol and 20 mL of 0.01 M phosphate buffer (pH 7.4) solution were placed and 5 μL of [^125I]HY-3-24 (700 kBq) was added. The mixture was vigorously shaken for 1 min followed by standing for 20 min to completely separate the layers. Five 1 mL of aliquots were taken from each phase and the radioactivity of each fraction was measured by a Wizard2 Automatic Gamma Counter. LogD7.4 was measured in quintuplicate and calculated as the logarithm of the ratio of radioactivity in organic phase to that in water phase.

D3R [6] = target: T1, D3R; experiment: Saturation/equilibrium binding of [125I]HY-3-24 on rat ventral striatum
Protocol: as §1
To confirm saturation time of [^125I]HY-3-24 with prepared membrane, [^125I]HY-3-24 (~0.3 nM) was mixed with 100 μg of membrane and incubated at RT up to 2 h. [^125I]HY-3-24 bound protein was collected by fast filtration methods (CF/C filter, Brandel Inc., Maryland, United States) and counted using gamma counter (PerkinElmer, Massachusetts, United States).
For saturation binding study, [^125I]HY-3-24 (0.001–1.6 nM concentration range) was incubated with 100 μg/100 μL of homogenized protein at RT for 60 min. Non-specific binding was defined the presence of 10 μM (+)-butaclamol, and total reaction volume was 200 μL. The reaction was finished by adding cold buffer (10 mM Tris–HCl, 150 mM NaCl, pH 7.5), and [^125I]HY-3-24 bound protein was filtered by 24-well harvester (Brandel Inc., Maryland, United States) through CF/C filter soaked with 1% PEI, and washed three times with 4 mL cold buffer. The collected filter was counted by gamma counter and data were analyzed by PRISM 9. The values of Bmax and Kd were obtained by three individual experiments.

D3R [7] = target: T1, D3R; experiment: In vitro autoradiography, rat brain sections; format: binding
Protocol: (§2) Regional brain distribution of [^125I]HY-3-24 binding was determined by in vitro autoradiography using Sprague–Dawley rat and non-human primate brains. A Cryotome (Leica Biosystems, Germany) was used for sectioning frozen brains by coronal and/or sagittal direction, and the thickness of tissue was 10–20 μm. Sectioned slides were stored at −80°C until use. The adjacent brain slides were warmed to RT for 20 min, the slides were incubated with cold reaction buffer (50 mM Tris–HCl, 150 mM NaCl, 1 mM EDTA, pH 7.5) at RT for 10 min, and the buffer was discarded. The slides were then incubated with […] of [^125I]HY-3-24 at RT for 1 h. For non-specific binding, 2 μM of (+)-butaclamol was used. After incubation, the slides were washed with cold buffer (three times) for 2 min, then air dried at RT for 10 min. Radiolabeled brain tissues were exposed to BAS imaging plate (Fujifilm, Tokyo, Japan) for 3 days, and the result was digitized by Typhoon FLA 7000 (GE Healthcare, Illinois, United States) and analyzed by Multi Gauge V3.0. For blocking studies comparing (+)-butaclamol and raclopride, brain slides were initially pretreated with blocking agent (50 nM) for 1 h. prior to the addition of the radioligand (0.3 nM).

D3R [8] = target: T2, D3R (Macaca mulatta, UniProt F6U709); experiment: In vitro autoradiography, non-human primate brain sections; format: binding; settings: rhesus monkey brain sections
T2 construct: in vitro autoradiography using Sprague–Dawley rat and non-human primate brains; from tissue; host or cells: non-human primate brain sections
Protocol: as §2

hD2R [9] = target: hD2R; set-up: method as in Kim et al., 2023; settings: ref Kim et al., 2023; cited from earlier work
hD3R [10] = target: hD3R; set-up: method as in Kim et al., 2023; settings: ref Kim et al., 2023; cited from earlier work
[11] = rat ventral striatal homogenates, 0.2–0.3 nM [125I]HY-3-24, RT 60 min, mean ± SD of three experiments, read-out: Ki for inhibiting [125I]HY-3-24 binding
[12] = rat brain coronal sections, ~0.3 nM radioligand

T1 sequence (P19020 whole entry): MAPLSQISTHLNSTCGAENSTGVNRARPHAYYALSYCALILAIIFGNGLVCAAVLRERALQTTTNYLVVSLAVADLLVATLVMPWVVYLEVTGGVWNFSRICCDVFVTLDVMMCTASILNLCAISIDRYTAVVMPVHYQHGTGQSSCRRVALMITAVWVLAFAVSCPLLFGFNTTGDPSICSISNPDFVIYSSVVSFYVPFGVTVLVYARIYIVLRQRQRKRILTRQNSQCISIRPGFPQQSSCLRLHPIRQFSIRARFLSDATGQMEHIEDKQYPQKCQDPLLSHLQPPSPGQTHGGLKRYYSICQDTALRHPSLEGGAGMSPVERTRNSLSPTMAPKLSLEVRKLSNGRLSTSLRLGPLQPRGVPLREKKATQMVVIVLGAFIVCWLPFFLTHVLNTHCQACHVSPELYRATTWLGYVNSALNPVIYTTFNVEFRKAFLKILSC
T2 sequence (F6U709 1-400): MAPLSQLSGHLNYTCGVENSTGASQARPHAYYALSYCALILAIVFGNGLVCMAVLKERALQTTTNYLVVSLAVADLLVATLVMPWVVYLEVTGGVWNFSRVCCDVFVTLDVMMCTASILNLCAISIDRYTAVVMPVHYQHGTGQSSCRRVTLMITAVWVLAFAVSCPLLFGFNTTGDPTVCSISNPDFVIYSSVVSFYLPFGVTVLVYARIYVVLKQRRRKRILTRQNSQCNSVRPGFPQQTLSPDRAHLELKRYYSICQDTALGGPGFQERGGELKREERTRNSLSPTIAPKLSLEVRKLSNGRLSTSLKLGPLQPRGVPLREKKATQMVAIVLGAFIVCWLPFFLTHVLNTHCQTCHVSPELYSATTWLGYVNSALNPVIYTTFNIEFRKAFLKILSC

CCCN1CCO[C@@H]2c3cc(O)ccc3CC[C@H]21 [(+)-PHNO]
Ki (D3R [1]; [11]): 1.72 ± 0.46 nM

CCc1cc(Cl)c(OC)c(C(=O)NC[C@@H]2CCCN2CC)c1O [Eticlopride]
Ki (D3R [1]): 0.25 ± 0.02 nM

OC1(c2ccc(Cl)cc2)CCN(Cc2c[nH]c3ccccc23)CC1 [L-741,626]
Ki (D2 receptors): 2.4 nM
displacement of [125I]HY-3-24 binding (D3R [2]): no displacement

CCN(CC)CCNC(=O)c1cc(Cl)c(N)cc1OC [Metoclopramide]
Ki (hD3R [3]): 27 ± 3 nM
Ki (hD2R [4]): 21 ± 1 nM

CCCN1CCO[C@@H]2c3cc(O)ccc3OC[C@H]21 [PD128907]
Ki (D3R [1]; [11]): 7.65 ± 1.15 nM

CCN1CCC[C@H]1CNC(=O)c1c(O)c(Cl)cc(Cl)c1OC [Raclopride]
Ki (D3R [1]; [11]): 2.51 ± 0.9 nM
fold lower affinity/potency for displacing [125I]HY-3-24 relative to eticlopride (D3R [1]): 10 fold

CN1CCc2cc(Cl)c(O)cc2[C@@H](c2ccccc2)C1 [SCH23390]
Ki (D3R [1]; [11]): 215 ± 61.7 nM
fold lower affinity/potency for displacing [125I]HY-3-24 relative to eticlopride (D3R [1]): 1,000 fold

CCN(CCCNC(=O)c1ccc(-c2ccncc2)cc1)CCNC(=O)c1cc([125I])cc(OC)c1OC [[^125I]HY-3-24]
logD at 1 min [5]: 2.41 ± 0.01
percentage of specific binding (D3R [6]; rat ventral striatal membranes): over 70%
non-specific binding, of total binding (D3R [6]; rat ventral striatal membranes, 10 μM (+)-butaclamol): less than 10%
Kd (D3R [6]; rat ventral striatal membranes, RT 60 min, three experiments): 0.34 ± 0.22 nM
Bmax (D3R [6]; rat ventral striatal membranes, fmol/mg of protein, three experiments): 38.91 ± 2.39 fmol/mg
time to binding equilibrium (D3R [6]; ~0.3 nM radioligand, 100 μg protein, RT, persisted until 2 h): about 30 min
binding in NAc including ICjM, and ICj (D3R [7]; [12]): High binding
binding in striatum (D3R [7]; [12]): lower amount of binding
displaceability by (+)-butaclamol and raclopride (D3R [7]; rat brain slices, blocking agents 50 nM, radioligand ~0.3 nM): fully displaceable
non-specific binding (D3R [8]; blocking with 2 μM (+)-butaclamol): low level of non-specific binding
binding in caudate nucleus (Cd), putamen (Pu), NAc, and ICj (D3R [8]; ~0.1 nM radioligand): high density

CCN(CCCNC(=O)c1ccc(-c2ccncc2)cc1)CCNC(=O)c1cc(Br)cc(OC)c1OC [compound 6]
Ki (hD2R [9]): 107 ± 5 nM
Ki (hD3R [10]): 1.1 ± 0.1 nM

— paper PMC11036874, “In vitro characterization of [^125I]HY-3-24, a selective ligand for the dopamine D3 receptor” (Frontiers in Neuroscience, 2024)
